Results as given in patent US20250235434A1, “RIFABUTIN ANALOGS FOR THE TREATMENT OF DISEASE” (BIOVERSYS AG, priority 2022, published 2025).
≈ marks a conversion by molar mass, not a printed value.

Columns and labels:
Assay type in all cases: cell-based
[1] = tested on: A. baumannii (HUMC1 strain); assay: MIC by broth microdilution against A. baumannii; details: Acinetobacter baumannii, RPMI medium supplemented with 10% FCS, 35° C. for 20 hours, visual reading
[2] = tested on: S. aureus (UAMS-1625 strain); assay: MIC by broth microdilution against S. aureus; details: Staphylococcus aureus, 20 h, read-out: MIC S. aureus
[3] = tested on: M. abscessus (ATCC 19977); assay: MIC by broth microdilution against M. abscessus; details: Mycobacteroides abscessus, ATCC19977, 20 h; ATCC 19977; Middlebrook 7H9 broth with ADC supplement; visual reading; read-out: MIC M. abscessus
M. xenopi (ATCC 19250) = assay: MIC against M. xenopi (resazurin assay); details: Mycobacterium xenopi, ATCC19250, 168 h, Middlebrook 7H9 + ADC, 90% growth inhibition, 7 days
[4] = tested on: M. tuberculosis H37Rv (ATCC 27294); assay: microbe, parasite or virus in culture; details: Mycobacterium tuberculosis, 120 h
[5] = tested on: M. smegmatis (ATCC 700084); assay: MIC against M. smegmatis (resazurin assay); details: Mycolicibacterium smegmatis, ATCC700084, Middlebrook 7H9 + ADC, 90% growth inhibition, 20 h
M. avium (ATCC 25291) = assay: MIC against M. avium (resazurin assay); details: Mycobacterium avium, ATCC25291, 168 h, Middlebrook 7H9 + ADC, 90% growth inhibition, 7 days
M. kansasii (ATCC 12478) = assay: MIC against M. kansasii (resazurin assay); details: Mycobacterium kansasii, ATCC12478, 168 h, Middlebrook 7H9 + ADC, 90% growth inhibition, 7 days

SMILES	MIC [1]	MIC [2]	MIC [3]	MIC (M. xenopi (ATCC 19250))	MIC [4]	MIC [5]	MIC (M. avium (ATCC 25291))	MIC (M. kansasii (ATCC 12478))
CO[C@H]1/C=C/O[C@@]2(C)Oc3c(C)c(O)c4c(c3C2=O)C2=NC3(CCN(CC(C)C)CC3)NC2=C(NC(=O)/C(C)=C\C=C\[C@H](C)[C@H](O)[C@@H](C)[C@@H](O)[C@@H](C)[C@H](OC(=O)CNCCN(C)C)[C@@H]1C)C4=O [Compound 13]	≤ 0.002 µg/mL	0.03 µg/mL (≈ 0.0321 µM)	2 µg/mL (≈ 2.14 µM)					
CO[C@H]1/C=C/O[C@@]2(C)Oc3c(C)c(O)c4c(c3C2=O)C2=NC3(CCN(CC(C)C)CC3)NC2=C(NC(=O)/C(C)=C\C=C\[C@H](C)[C@H](O)[C@@H](C)[C@@H](O)[C@@H](C)[C@H](OC(=O)C[n+]2ccc(N(C)C)cc2)[C@@H]1C)C4=O [Compound 35]	≤ 0.002 µg/mL	0.06 µg/mL	0.5 µg/mL	0.04 µg/mL	0.0025 µg/mL	0.03 µg/mL	0.8 µg/mL	0.003 µg/mL
CO[C@H]1/C=C/O[C@@]2(C)Oc3c(C)c(O)c4c(c3C2=O)C2=NC3(CCN(CC(C)C)CC3)NC2=C(NC(=O)/C(C)=C\C=C\[C@H](C)[C@H](O)[C@@H](C)[C@@H](O)[C@@H](C)[C@H](OC(=O)CN2CCC(NC(=O)OC(C)(C)C)CC2)[C@@H]1C)C4=O [Compound 27]	0.008 µg/mL (≈ 0.00765 µM)	0.125 µg/mL (≈ 0.12 µM)	0.25 µg/mL (≈ 0.239 µM)					
CO[C@H]1/C=C/O[C@@]2(C)Oc3c(C)c(O)c4c(c3C2=O)C2=NC3(CCN(CC(C)C)CC3)NC2=C(NC(=O)/C(C)=C\C=C\[C@H](C)[C@H](O)[C@@H](C)[C@@H](O)[C@@H](C)[C@H](OC(=O)CN2CCC(N(C)C)CC2)[C@@H]1C)C4=O [Compound 3]	≤ 0.002 µg/mL	0.03 µg/mL (≈ 0.0308 µM)	1 µg/mL (≈ 1.03 µM)	0.07 µg/mL	0.008 µg/mL (≈ 0.00822 µM)	0.03 µg/mL	1.2 µg/mL	0.01 µg/mL
CO[C@H]1/C=C/O[C@@]2(C)Oc3c(C)c(O)c4c(c3C2=O)C2=NC3(CCN(CC(C)C)CC3)NC2=C(NC(=O)/C(C)=C\C=C\[C@H](C)[C@H](O)[C@@H](C)[C@@H](O)[C@@H](C)[C@H](OC(=O)CN2CCC(C(O)c3nccn3C)CC2)[C@@H]1C)C4=O (some centres unmarked) [Compound 23]	0.004 µg/mL (≈ 0.00385 µM)	0.125 µg/mL (≈ 0.12 µM)	1 µg/mL (≈ 0.961 µM)					
CO[C@H]1/C=C/O[C@@]2(C)Oc3c(C)c(O)c4c(c3C2=O)C2=NC3(CCN(CC(C)C)CC3)NC2=C(NC(=O)/C(C)=C\C=C\[C@H](C)[C@H](O)[C@@H](C)[C@@H](O)[C@@H](C)[C@H](OC(=O)CN2CCC(Cc3ccccc3)CC2)[C@@H]1C)C4=O [Compound 21]	0.125 µg/mL (≈ 0.123 µM)	4 µg/mL (≈ 3.92 µM)	2 µg/mL (≈ 1.96 µM)					
CO[C@H]1/C=C/O[C@@]2(C)Oc3c(C)c(O)c4c(c3C2=O)C2=NC3(CCN(CC(C)C)CC3)NC2=C(NC(=O)/C(C)=C\C=C\[C@H](C)[C@H](O)[C@@H](C)[C@@H](O)[C@@H](C)[C@H](OC(=O)CN2CCN(c3ccccc3)CC2)[C@@H]1C)C4=O [Compound 7]	0.06 µg/mL (≈ 0.0596 µM)	0.5 µg/mL (≈ 0.496 µM)	0.5 µg/mL (≈ 0.496 µM)					
COc1cc(CC2CCN(CC(=O)O[C@H]3[C@H](C)[C@H](O)[C@H](C)[C@@H](O)[C@@H](C)/C=C/C=C(/C)C(=O)NC4=C5NC6(CCN(CC(C)C)CC6)N=C5c5c(c(O)c(C)c6c5C(=O)[C@@](C)(O/C=C/[C@H](OC)[C@H]3C)O6)C4=O)CC2)cc(C(F)(F)F)c1 [Compound 22]	0.25 µg/mL (≈ 0.224 µM)	4 µg/mL (≈ 3.58 µM)	4 µg/mL (≈ 3.58 µM)					
CO[C@H]1/C=C/O[C@@]2(C)Oc3c(C)c(O)c4c(c3C2=O)C2=NC3(CCN(CC(C)C)CC3)NC2=C(NC(=O)/C(C)=C\C=C\[C@H](C)[C@H](O)[C@@H](C)[C@@H](O)[C@@H](C)[C@H](OC(=O)CNCC(C)C)[C@@H]1C)C4=O [Compound 17]	0.008 µg/mL (≈ 0.00871 µM)	0.06 µg/mL (≈ 0.0653 µM)	4 µg/mL (≈ 4.36 µM)					
CO[C@H]1/C=C/O[C@@]2(C)Oc3c(C)c(O)c4c(c3C2=O)C2=NC3(CCN(CC(C)C)CC3)NC2=C(NC(=O)/C(C)=C\C=C\[C@H](C)[C@H](O)[C@@H](C)[C@@H](O)[C@@H](C)[C@H](OC(=O)CN2CCC(N3CCCCC3)CC2)[C@@H]1C)C4=O [Compound 26]	≤ 0.002 µg/mL	0.06 µg/mL (≈ 0.0592 µM)	0.5 µg/mL (≈ 0.493 µM)	0.06 µg/mL	0.007 µg/mL (≈ 0.00691 µM)	0.04 µg/mL	1.15 µg/mL	0.02 µg/mL
CO[C@H]1/C=C/O[C@@]2(C)Oc3c(C)c(O)c4c(c3C2=O)C2=NC3(CCN(CC(C)C)CC3)NC2=C(NC(=O)/C(C)=C\C=C\[C@H](C)[C@H](O)[C@@H](C)[C@@H](O)[C@@H](C)[C@H](OC(=O)CN2CCC(n3c(=O)[nH]c5ccccc53)CC2)[C@@H]1C)C4=O [Compound 18]	0.03 µg/mL (≈ 0.0282 µM)	0.5 µg/mL (≈ 0.471 µM)	0.5 µg/mL (≈ 0.471 µM)	0.01 µg/mL	0.002 µg/mL (≈ 0.00188 µM)	0.09 µg/mL	1.3 µg/mL	0.01 µg/mL
